Reference: patent US20110251379A1, “COMPOUNDS USEFUL FOR TREATING NEURODEGENERATIVE DISORDERS” (Satori Pharmaceuticals, Inc., priority 2010, published 2011)

system: amyloid-beta (1-42) peptide; experiment: ELISA assay of amyloid-beta (1-42) in conditioned media of 2B7 cells; format: cell-based; conditions: Aβ-42, 10 umol/L; read-out: % Inhibition (range)
Procedure: Compounds of the present invention, and extracts comprising said compounds, may be assayed as inhibitors of amyloid-beta (1-42) peptide in vitro or in vivo. Such assay methods are described in detail in U.S. Pat. No. 6,649,196, the entirety of which is hereby incorporated herein by reference.
In certain embodiments, provided compounds of the present invention, and extracts comprising said compounds, were assayed as inhibitors of amyloid-beta (1-42) peptide in vitro using an ELISA assay.
Capture Plate Prep: • 6E10 was diluted to 5.0 ug/mL in 100 mM NaHCO3 pH 8.2 (10 ug aliquot per 2 mL buffer); • 100 uL capture antibody solution was added to wells of 96 well plate; • Incubated overnight at 4° C. sealed; • Aspirated off capture antibody; and • Blocked with 250 uL of Blocking Buffer for 2-4 hours at rt sealed.
Conditioned Media: • Cultured 2B7 cells in 96 well plate with 250 uL of media per well until confluent; • Prepared serial dilution of compounds in DMSO at 100× the final desired concentration; • Washed wells with 2B7 cells lx with 250 uL of media; • Diluted DMSO stocks 1:100 into media and mix; and • Added 250 μL of media containing compounds (1% DMSO) to wells with 2B7 cells for 5 hours at 37° C.
Elisa Sample Prep: • Diluted conditioned media 1:2 into blocking buffer; • NOTE: If assaying for A-Beta 1-40 or total A-Beta, then diluted above sample 1:10 with a 50/50 mixture of non-conditioned media containing 1% DMSO and blocking buffer.
Standard Curve Sample Prep: • Diluted appropriate A-Beta peptide stock (stored in 1% NH4OH) to 200 μg/mL in blocking buffer; • Prepared a 1:2 serial dilution from the 200 μg/mL sample (150 μL into 150 μL blocking buffer); and • Added equal volume of standard curve samples to non-conditioned media with 1% DMSO.
Overnight Sample Incubation: • Aspirated blocking buffer from blocked plate; • Added 100 μL of samples to wells of plate (samples will be 50% media with 1% DMSO and 50% blocking buffer; and • Incubated overnight at 4° C. sealed.
Addition of Detection Antibody: • Aspirated off samples, wash 2× with 250 μL blocking buffer; and • Added 100 μL detection antibody labeled with HRP at 0.25 ug/mL in blocking buffer for 4 hours at room temperature sealed.
Final Wash and Readout: • Aspirated wells, wash 5× with 250 μL of PBS-T (2 minutes each wash at 30 RPM); • Added 100 μL TMB for 20 minutes; • Added 100 μL of 1M H3PO4; and • Read at 450 nm.
Coating Buffer (100 mM NaHCO3 pH 8.2)
PBS-T (PBS with 0.05% Tween-20)
Blocking Buffer (1% BSA in PBS-T)

Question: With `C[C@@H]1C(I)COC2C[C@H]3[C@@H]4CC=C5C[C@@H](O)CC[C@]5(C)[C@H]4CC[C@]3(C)C21` (stereo partly shown) as the molecule, how does the inhibition at 10 µM read?
Answer: < 25%

Question: `CC(=O)O[C@H]1CC[C@]23C[C@]24CC[C@]2(C)C5C(C[C@@]2(C)C4CCC3C1(C)C)OC(O)(C(F)(F)F)C[C@H]5C` (stereo partly shown) was tested. Which inhibition at 10 µM did it give?
Answer: < 25%

Question: With `CC(=O)O[C@H]1CC[C@]23C[C@]24CC[C@]2(C)C5C(C[C@@]2(C)[C@@H]4CC[C@H]3C1(C)C)OC(C(F)(F)F)=C[C@H]5C` (stereo partly shown) as the molecule, how does the inhibition at 10 µM read?
Answer: < 25%

Question: For `CC1O[C@@H]([C@H]2C[C@@H](C)C3C(O2)[C@H](O)[C@@]2(C)[C@@H]4CC[C@H]5C(C)(C)[C@@H](O)CC[C@@]56C[C@@]46CC[C@]32C)C(C)(C)O1` (stereo partly shown), which inhibition at 10 µM is on record?
Answer: < 25%

Question: `CC(=O)O[C@@H]([C@H]1C[C@@H](C)C2=C(O1)C(=O)[C@@]1(C)[C@@H]3CC[C@H]4C(C)(C)C(=O)CC[C@@]45C[C@@]35CC[C@]21C)C(C)(C)O` was tested. Which inhibition at 10 µM did it give?
Answer: < 25%

Question: For `CC(=O)O[C@H]1CC[C@]23C[C@]24CC[C@]2(C)C5C(C[C@@]2(C)C4CCC3C1(C)C)OC(C(F)(F)F)=C[C@H]5C` (stereo partly shown), which inhibition at 10 µM is on record?
Answer: < 25%

Question: With `CC1COC2C[C@H]3[C@@H]4CCC5C[C@@H](O)CC[C@]5(C)[C@H]4CC[C@]3(C)C2[C@@H]1C` (stereo partly shown) as the molecule, how does the inhibition at 10 µM read?
Answer: < 25%

Question: `C[C@@H]1C=C(C(F)(F)F)OC2C[C@@]3(C)C4CCC5C(C)(C)[C@@H](O)CC[C@@]56C[C@@]46CC[C@]3(C)C21` (stereo partly shown) was tested. Which inhibition at 10 µM did it give?
Answer: 25 to 75%

same assay, conditions: Aβ-42, 20 umol/L

Question: Which “% Inhibition (range)” value does the source give for `CC1CC(C(O)C(C)(C)O)OC2C1C1(C)CCC34CC35CCC(OC3CN(C(=O)c6cc(F)cc(F)c6)CCO3)C(C)(C)C5CCC4C1(C)C2O` (stereo not shown) here?
Answer: E E (% inhibition of 25-75%)

Question: For `CC1CC(C(O)C(C)(C)O)OC2C1C1(C)CCC34CC35CCC(OC3CN(CCCC(=O)O)CCO3)C(C)(C)C5CCC4C1(C)C2O` (stereo not shown), which “% Inhibition (range)” value is on record?
Answer: E E (% inhibition of 25-75%)

Question: `CC1CC(C(O)C(C)(C)O)OC2C1C1(C)CCC34CC35CCC(OC3CN(CCC(=O)O)CCO3)C(C)(C)C5CCC4C1(C)C2O` (stereo not shown) was tested. Which “% Inhibition (range)” value did it give?
Answer: E E (% inhibition of 25-75%)

Question: For `CC1CC(C(O)C(C)(C)O)OC2C1C1(C)CCC34CC35CCC(OC3CN(C(=O)C6CCOCC6)CCO3)C(C)(C)C5CCC4C1(C)C2O` (stereo not shown), which “% Inhibition (range)” value is on record?
Answer: E (% inhibition of 25-75%)

Question: `CC1CC(C(O)C(C)(C)O)OC2C1C1(C)CCC34CC35CCC(OC3CN(C(=O)c6ccncc6)CCO3)C(C)(C)C5CCC4C1(C)C2O` (stereo not shown) was tested. Which “% Inhibition (range)” value did it give?
Answer: E E (% inhibition of 25-75%)

Question: With `CC1CC(C(O)C(C)(C)O)OC2C1C1(C)CCC34CC35CCC(OC3CN(C(=O)CC6CCOCC6)CCO3)C(C)(C)C5CCC4C1(C)C2O` (stereo not shown) as the molecule, how does the “% Inhibition (range)” value read?
Answer: F (% inhibition of <25%)

Question: For `CC1CC(C(O)C(C)(C)O)OC2C1C1(C)CCC34CC35CCC(OC3CN(C(=O)Cc6ccc(F)cc6)CCO3)C(C)(C)C5CCC4C1(C)C2O` (stereo not shown), which “% Inhibition (range)” value is on record?
Answer: E E (% inhibition of 25-75%)

Question: `CC1CC(C(O)C(C)(C)O)OC2C1C1(C)CCC34CC35CCC(OC3CN(C(=O)C6CCCCC6)CCO3)C(C)(C)C5CCC4C1(C)C2O` (stereo not shown) was tested. Which “% Inhibition (range)” value did it give?
Answer: E (% inhibition of 25-75%)

Question: With `CC1CC(C(O)C(C)(C)O)OC2C1C1(C)CCC34CC35CCC(OC3CN(C(=O)C6CC6)CCO3)C(C)(C)C5CCC4C1(C)C2O` (stereo not shown) as the molecule, how does the “% Inhibition (range)” value read?
Answer: E (% inhibition of 25-75%)

Question: `CC1CC(C(O)C(C)(C)O)OC2C1C1(C)CCC34CC35CCC(OC3CN(C(=O)Cc6cc(F)cc(F)c6)CCO3)C(C)(C)C5CCC4C1(C)C2O` (stereo not shown) was tested. Which “% Inhibition (range)” value did it give?
Answer: E E (% inhibition of 25-75%)

Question: For `CC1CC(C(O)C(C)(C)O)OC2C1C1(C)CCC34CC35CCC(OC3CN(C(=O)CC6CCC6)CCO3)C(C)(C)C5CCC4C1(C)C2O` (stereo not shown), which “% Inhibition (range)” value is on record?
Answer: E (% inhibition of 25-75%)

Question: With `CC1CC(C(O)C(C)(C)O)OC2C1C1(C)CCC34CC35CCC(OC3CN(C6CCOCC6)CCO3)C(C)(C)C5CCC4C1(C)C2O` (stereo not shown) as the molecule, how does the “% Inhibition (range)” value read?
Answer: E (% inhibition of 25-75%)

same assay, conditions: Aβ-42, 100 umol/L

Question: For `CC1CC(C(O)C(C)(C)O)OC2C1C1(C)CCC34CC35CCC(OC3CN(C(=O)c6cc(F)cc(F)c6)CCO3)C(C)(C)C5CCC4C1(C)C2O` (stereo not shown), which “% Inhibition (range)” value is on record?
Answer: E E (% inhibition of 25-75%)

Question: For `CC1CC(C(O)C(C)(C)O)OC2C1C1(C)CCC34CC35CCC(OC3CN(CCCC(=O)O)CCO3)C(C)(C)C5CCC4C1(C)C2O` (stereo not shown), which “% Inhibition (range)” value is on record?
Answer: E E (% inhibition of 25-75%)

Question: With `CC1CC(C(O)C(C)(C)O)OC2C1C1(C)CCC34CC35CCC(OC3CN(CCC(=O)O)CCO3)C(C)(C)C5CCC4C1(C)C2O` (stereo not shown) as the molecule, how does the “% Inhibition (range)” value read?
Answer: E E (% inhibition of 25-75%)

Question: How did the “% Inhibition (range)” value turn out when `CC1CC(C(O)C(C)(C)O)OC2C1C1(C)CCC34CC35CCC(OC3CN(C(=O)c6ccncc6)CCO3)C(C)(C)C5CCC4C1(C)C2O` (stereo not shown) was run?
Answer: E E (% inhibition of 25-75%)

Question: Which “% Inhibition (range)” value does the source give for `CC1CC(C(O)C(C)(C)O)OC2C1C1(C)CCC34CC35CCC(OC3CN(C(=O)Cc6ccc(F)cc6)CCO3)C(C)(C)C5CCC4C1(C)C2O` (stereo not shown) here?
Answer: E E (% inhibition of 25-75%)

Question: How did the “% Inhibition (range)” value turn out when `CC1CC(C(O)C(C)(C)O)OC2C1C1(C)CCC34CC35CCC(OC3CN(C(=O)Cc6cc(F)cc(F)c6)CCO3)C(C)(C)C5CCC4C1(C)C2O` (stereo not shown) was run?
Answer: E E (% inhibition of 25-75%)

Question: For `CC1CC(C(O)C(C)(C)O)OC2C1C1(C)CCC34CC35CCC(OC3CN(C(=O)CC6CCC6)CCO3)C(C)(C)C5CCC4C1(C)C2O` (stereo not shown), which “% Inhibition (range)” value is on record?
Answer: F (% inhibition of <25%)

same assay, conditions: Aβ-42, 2B7 cells, 5 hours; read-out: IC50 range

Question: With `CC1CC(C(O)C(C)(C)O)OC2C1C1(C)CCC34CC35CCC(OC3CN(CCCC(=O)O)CCO3)C(C)(C)C5CCC4C1(C)C2O` (stereo not shown) as the molecule, how does the IC50 read?
Answer: > 10 µM
